PubChem BioAssay AID1963844 (Molecular Pharmacology Branch, DTP, NCI, 2024)

Tested on: 422866-222-R5-J1-PDC complex spheroid viability
Assay: Anticancer human tumor 422866-222-R5-J1-PDC patient-derived pancreatic adenocarcinoma cell line growth inhibition [POLQ]
Conditions: for IC50: curve of first compound; for viability, T/C: stronger effect = lower value
How it was run: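 Patient-derived tumour cells were co-cultured with HUVEC and mesenchymal stem cells as multicellular spheroids at 37 °C. They were treated with POLQ inhibitors (novobiocin, ART-558, RP6685) alone or combined with other agents. Top concentrations were at or near clinical Cmax (otherwise 10 microM; SN-38 at 1 microM), decreasing in half-log steps.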

[1] = second compound 0.0316 µM, first compound 0.0316 µM
[2] = second compound 0.0316 µM, first compound 0.1 µM
[3] = second compound 0.0316 µM, first compound 0.316 µM
[4] = second compound 0.0316 µM, first compound 1 µM
[5] = second compound 0.0316 µM, first compound 3.16 µM
[6] = second compound 0.0316 µM, first compound 10 µM
[7] = second compound 0.1 µM, first compound 0.0316 µM
[8] = second compound 0.1 µM, first compound 0.1 µM
[9] = second compound 0.1 µM, first compound 0.316 µM
[10] = second compound 0.1 µM, first compound 1 µM
[11] = second compound 0.1 µM, first compound 3.16 µM
[12] = second compound 0.1 µM, first compound 10 µM
[13] = second compound 0.316 µM, first compound 0.0316 µM
[14] = second compound 0.316 µM, first compound 0.1 µM
[15] = second compound 0.316 µM, first compound 0.316 µM
[16] = second compound 0.316 µM, first compound 1 µM
[17] = second compound 0.316 µM, first compound 3.16 µM
[18] = second compound 0.316 µM, first compound 10 µM
[19] = second compound 1 µM, first compound 0.0316 µM
[20] = second compound 1 µM, first compound 0.1 µM
[21] = second compound 1 µM, first compound 0.316 µM
[22] = second compound 1 µM, first compound 1 µM
[23] = second compound 1 µM, first compound 3.16 µM
[24] = second compound 1 µM, first compound 10 µM
[25] = second compound 3.16 µM, first compound 0.0316 µM
[26] = second compound 3.16 µM, first compound 0.1 µM
[27] = second compound 3.16 µM, first compound 0.316 µM
[28] = second compound 3.16 µM, first compound 1 µM
[29] = second compound 3.16 µM, first compound 3.16 µM
[30] = second compound 3.16 µM, first compound 10 µM
[31] = second compound 10 µM, first compound 0.0316 µM
[32] = second compound 10 µM, first compound 0.1 µM
[33] = second compound 10 µM, first compound 0.316 µM
[34] = second compound 10 µM, first compound 1 µM
[35] = second compound 10 µM, first compound 3.16 µM
[36] = second compound 10 µM, first compound 10 µM
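Note: spheroids exposed to compounds for one week before readout.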
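Throughout, for viability, T/C: percent of DMSO vehicle wells luminescence so 100% = untreated viability.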

CC1COCCN1c1cc(C2(S(C)(=N)=O)CC2)nc(-c2ccnc3[nH]ccc23)n1 (stereo not drawn) + COC1C(OC(N)=O)C(O)C(Oc2ccc3c(O)c(NC(=O)c4ccc(O)c(CC=C(C)C)c4)c(=O)oc3c2C)OC1(C)C gave an IC50 (second compound 0.0316 µM) of 2.67 µM, an IC50 (second compound 0.1 µM) of 2.91 µM and an IC50 (second compound 0.316 µM) of 2.83 µM. The IC50 (second compound 1 µM) was 2.94 µM, the IC50 (second compound 3.16 µM) was 2.56 µM and the IC50 (second compound 10 µM) was 4.12 µM. The viability, T/C [1] was 102%, the viability, T/C [2] was 111% and the viability, T/C [3] was 88.4%. The viability, T/C [4] was 75.6%, the viability, T/C [5] was 43.9% and the viability, T/C [6] was 34.1%. For the same compound, the viability, T/C [7] was 104%, the viability, T/C [8] was 103% and the viability, T/C [9] was 91.6%. The viability, T/C [10] was 75.4%, the viability, T/C [11] was 46.6% and the viability, T/C [12] was 34.8%. For the same compound, the viability, T/C [13] was 95.8%, the viability, T/C [14] was 91% and the viability, T/C [15] was 92.5%. The viability, T/C [16] was 71.8%, the viability, T/C [17] was 48% and the viability, T/C [18] was 44.1%. For the same compound, the viability, T/C [19] was 91.3%, the viability, T/C [20] was 97.7% and the viability, T/C [21] was 101%. The viability, T/C [22] was 69.4%, the viability, T/C [23] was 54.9% and the viability, T/C [24] was 39.8%. The viability, T/C [25] was 107%, the viability, T/C [26] was 99% and the viability, T/C [27] was 104%. It also gave a viability, T/C [28] of 77.7%, a viability, T/C [29] of 44.4% and a viability, T/C [30] of 39.8%. It also gave a viability, T/C [31] of 97.1%, a viability, T/C [32] of 99.5% and a viability, T/C [33] of 112%. For the same compound, the viability, T/C [34] was 75.5%, the viability, T/C [35] was 58.7% and the viability, T/C [36] was 33%.

In the case of O=C(Nc1ccc(O)c(NS(=O)(=O)c2ccc(F)cc2)c1)c1ccc(-c2ccccc2)cc1 + COC1C(OC(N)=O)C(O)C(Oc2ccc3c(O)c(NC(=O)c4ccc(O)c(CC=C(C)C)c4)c(=O)oc3c2C)OC1(C)C, the IC50 (second compound 0.0316 µM) is reported as > 10 µM, the IC50 (second compound 0.1 µM) is reported as > 10 µM and the IC50 (second compound 0.316 µM) is reported as > 10 µM. The IC50 (second compound 1 µM) was > 10 µM, the IC50 (second compound 3.16 µM) was > 10 µM and the IC50 (second compound 10 µM) was > 10 µM. For the same compound, the viability, T/C [1] was 99.6%, the viability, T/C [2] was 101% and the viability, T/C [3] was 77.7%. It also gave a viability, T/C [4] of 94.6%, a viability, T/C [5] of 96.1% and a viability, T/C [6] of 126%. It also gave a viability, T/C [7] of 92.2%, a viability, T/C [8] of 87.3% and a viability, T/C [9] of 83.3%. For the same compound, the viability, T/C [10] was 95.2%, the viability, T/C [11] was 88.8% and the viability, T/C [12] was 133%. For the same compound, the viability, T/C [13] was 92.4%, the viability, T/C [14] was 88% and the viability, T/C [15] was 84%. It also gave a viability, T/C [16] of 99.5%, a viability, T/C [17] of 93% and a viability, T/C [18] of 123%. The viability, T/C [19] was 106%, the viability, T/C [20] was 95% and the viability, T/C [21] was 83.7%. The viability, T/C [22] was 84.9%, the viability, T/C [23] was 97.7% and the viability, T/C [24] was 125%. The viability, T/C [25] was 93.8%, the viability, T/C [26] was 100% and the viability, T/C [27] was 103%. For the same compound, the viability, T/C [28] was 89.2%, the viability, T/C [29] was 103% and the viability, T/C [30] was 124%. For the same compound, the viability, T/C [31] was 95.8%, the viability, T/C [32] was 80.9% and the viability, T/C [33] was 87.4%. For the same compound, the viability, T/C [34] was 85%, the viability, T/C [35] was 96.4% and the viability, T/C [36] was 133%.

In the case of CNCc1ccc(-c2[nH]c3cc(F)cc4c3c2CCNC4=O)cc1 + Nc1ccc(C#CCN(C(=O)Cc2ncc(C(F)(F)F)cc2C(F)(F)F)c2ccc(F)cc2)nn1, the IC50 (second compound 0.0316 µM) is reported as > 10 µM, the IC50 (second compound 0.1 µM) is reported as > 10 µM and the IC50 (second compound 0.316 µM) is reported as > 10 µM. The IC50 (second compound 1 µM) was > 10 µM, the IC50 (second compound 3.16 µM) was > 10 µM and the IC50 (second compound 10 µM) was > 10 µM. It also gave a viability, T/C [1] of 78.7%, a viability, T/C [2] of 93.6% and a viability, T/C [3] of 77.7%. For the same compound, the viability, T/C [4] was 104%, the viability, T/C [5] was 78.8% and the viability, T/C [6] was 76.6%. It also gave a viability, T/C [7] of 106%, a viability, T/C [8] of 87.5% and a viability, T/C [9] of 92.4%. The viability, T/C [10] was 107%, the viability, T/C [11] was 80.6% and the viability, T/C [12] was 82.8%. It also gave a viability, T/C [13] of 87.4%, a viability, T/C [14] of 109% and a viability, T/C [15] of 97.1%. It also gave a viability, T/C [16] of 101%, a viability, T/C [17] of 72.1% and a viability, T/C [18] of 79.5%. It also gave a viability, T/C [19] of 89.4%, a viability, T/C [20] of 89.9% and a viability, T/C [21] of 93%. For the same compound, the viability, T/C [22] was 91.9%, the viability, T/C [23] was 73.5% and the viability, T/C [24] was 63%. For the same compound, the viability, T/C [25] was 100%, the viability, T/C [26] was 96.4% and the viability, T/C [27] was 105%. For the same compound, the viability, T/C [28] was 89.7%, the viability, T/C [29] was 87.4% and the viability, T/C [30] was 81.9%. It also gave a viability, T/C [31] of 96.1%, a viability, T/C [32] of 109% and a viability, T/C [33] of 89.8%. For the same compound, the viability, T/C [34] was 64.7%, the viability, T/C [35] was 79% and the viability, T/C [36] was 69%.

CC[C@@]1(O)C(=O)OCc2c1cc1n(c2=O)Cc2cc3c(CN(C)C)c(O)ccc3nc2-1 + Nc1ccc(C#CCN(C(=O)Cc2ncc(C(F)(F)F)cc2C(F)(F)F)c2ccc(F)cc2)nn1 gave an IC50 (second compound 0.0316 µM) of 0.0263 µM, an IC50 (second compound 0.1 µM) of 0.0184 µM and an IC50 (second compound 0.316 µM) of 0.0195 µM. The IC50 (second compound 1 µM) was 0.0107 µM, the IC50 (second compound 3.16 µM) was 0.0197 µM and the IC50 (second compound 10 µM) was 0.0266 µM. The viability, T/C (second compound 0.0316 µM, first compound 0.000316 µM) was 102%, the viability, T/C (second compound 0.0316 µM, first compound 0.001 µM) was 109% and the viability, T/C (second compound 0.0316 µM, first compound 0.00316 µM) was 93.3%. The viability, T/C (second compound 0.0316 µM, first compound 0.01 µM) was 76%, the viability, T/C [1] was 44% and the viability, T/C [2] was 34.6%. It also gave a viability, T/C (second compound 0.1 µM, first compound 0.000316 µM) of 99.1%, a viability, T/C (second compound 0.1 µM, first compound 0.001 µM) of 87.2% and a viability, T/C (second compound 0.1 µM, first compound 0.00316 µM) of 89.6%. For the same compound, the viability, T/C (second compound 0.1 µM, first compound 0.01 µM) was 63.9%, the viability, T/C [7] was 37.4% and the viability, T/C [8] was 33.6%. The viability, T/C (second compound 0.316 µM, first compound 0.000316 µM) was 85.6%, the viability, T/C (second compound 0.316 µM, first compound 0.001 µM) was 105% and the viability, T/C (second compound 0.316 µM, first compound 0.00316 µM) was 87%. For the same compound, the viability, T/C (second compound 0.316 µM, first compound 0.01 µM) was 63.8%, the viability, T/C [13] was 40.8% and the viability, T/C [14] was 34.8%. For the same compound, the viability, T/C (second compound 1 µM, first compound 0.000316 µM) was 105%, the viability, T/C (second compound 1 µM, first compound 0.001 µM) was 108% and the viability, T/C (second compound 1 µM, first compound 0.00316 µM) was 80.5%. For the same compound, the viability, T/C (second compound 1 µM, first compound 0.01 µM) was 53.6%, the viability, T/C [19] was 33.3% and the viability, T/C [20] was 35.7%. For the same compound, the viability, T/C (second compound 3.16 µM, first compound 0.000316 µM) was 89.2%, the viability, T/C (second compound 3.16 µM, first compound 0.001 µM) was 100% and the viability, T/C (second compound 3.16 µM, first compound 0.00316 µM) was 92.9%. It also gave a viability, T/C (second compound 3.16 µM, first compound 0.01 µM) of 68.1%, a viability, T/C [25] of 36.9% and a viability, T/C [26] of 37%. For the same compound, the viability, T/C (second compound 10 µM, first compound 0.000316 µM) was 114%, the viability, T/C (second compound 10 µM, first compound 0.001 µM) was 99.4% and the viability, T/C (second compound 10 µM, first compound 0.00316 µM) was 100%. For the same compound, the viability, T/C (second compound 10 µM, first compound 0.01 µM) was 75.8%, the viability, T/C [31] was 44.5% and the viability, T/C [32] was 31.5%.
